Assay results as given in patent US9415047B2, “Use of benzo five-membered nitrogen heterocyclic piperazine or piperidine derivatives” (Liaoning Emmy Biological Pharmaceutical Co., Ltd., priority 2012, dated 2016).
Values joined by “and” are separate entries in the source; they are usually repeats but may differ in a detail not shown here. Identical values can stand only once. “Also recorded” adds a separate entry of the source.

Assays:
[1] = tested on: AD constricted rabbit aorta; test: Relaxing effects on vascular smooth muscle constricted by adrenaline hydrochloride (AD) in vitro; conditions: Oryctolagus cuniculus; relaxation of rabbit aorta constricted by adrenaline (10^−5 mol/L); mean±SEM, n=5
How it was run: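 Rabbit aortic strips in K-H solution precontracted with adrenaline hydrochloride (10^−5 mol/L) after a reproducible second contraction; compounds added cumulatively over ranges from 1×10^−10 up to 1×10^−2 mol/L depending on the compound series. Relaxation expressed as % of maximal relaxation versus −log concentration, mean±SEM, n=5.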

[2] = tested on: high kalium concentration constricted rabbit aorta; test: Relaxing effects on vascular smooth muscle constricted by high kalium concentration in vitro; conditions: Oryctolagus cuniculus, relaxation of rabbit aorta constricted by high kalium solution (K+ 60 mmol/L); mean±SEM, n=5
How it was run: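 Rabbit aortic rings pre-challenged with adrenaline (10^−5 mol/L), washed and re-equilibrated 60 min in K-H solution, then constricted with high-K+ solution; compounds added cumulatively over 1×10^−10–1×10^−2 mol/L depending on series. Relaxation expressed as % of maximal relaxation vs −log concentration; mean±SEM, n=5.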

α1 receptor [3] = test: Antagonism of accumulative constriction of rabbit aorta by noradrenaline (α-receptor agonist)
Method: Then samples were flushed with K-H solution repeatedly, K-H solution was changed for every 20 min, and the samples were balanced for 60 min. After baseline recovered to be stable, doxazosin (10^−7 mol/L) was added, and noradrenaline (NA) (10^−8-6×10^−5 mol/L) was added by using the same method 15 min later.
NA was also added by using the same method 15 min later.

Calcium Channel (Ca^2+) = test: Antagonism of accumulative constriction of rabbit aorta by CaCl2; conditions: calcium free high kalium depolarization
Method: (§4) Rabbits were hit to be dizzy, with thoracic cavity quickly cut open, descending aorta exposed, connective tissues and surrounding fatty tissues (for hydroxytryptamine receptor antagonism test, endothelia should be removed with smooth stainless steel rod) removed, the aorta was cut into 3-5 mm vascular rings which were penetrated together with a steel wire with one end fixed on ventilation hook, another end on pressure tonotransducer. The aorta rings were put into a bath tube with 20 ml of nutritional solution, and the tension changes were recorded by using the recorder. The temperature of bath tube was maintained at 37±0.5° C., and mixed gas (95% O2+5% CO2) was ventilated at a rate of I-2 bubbles/second. The initial load of the sample was 1.5 g, nutritional solution was changed for every 20 min. The sample was balanced for 2 hours, and the experiment would be started when baseline became stable.
After sample tension became stable, calcium K-H solution was used to flush the sample for 3 times, and incubated with calcium free K-H solution for 40 min. Calcium free high kalium solution was added into the sample for depolarization for 20 min, then CaCl2 (10^−6-10^−2 mol/L) was added into bath tube till maximal response was achieved, and then waveform was recorded. Then K-H solution was used to flush the sample repeatedly, the K-H solution was changed for every 20 min, and the sample was balanced for 60 min. […]
After sample tension became stable, calcium K-H solution was used to flush the sample for 3 times, and incubated with calcium free K-H solution for 40 min. Calcium free high kalium solution was added into the sample for depolarization for 20 min, then CaCl2 (10^−6-10^−2 mol/L) was added into bath tube till maximal response was achieved, and then waveform was recorded. […] Calcium free high kalium solution was added into the sample for depolarization for 20 min, then amlodipine (10^−7 mol/L) was added into bath tube, which was incubated for 15 min, then CaCl2 (10^−6-10^−2 mol/L) was added by using the same method till maximal response was achieved, and then waveform was recorded. […]

[4] = Experiment on acute toxicity; conditions: both sexes, Kunming, mouse, in vivo, po; mice, gastric gavage
Source text: (§1) Kunming mice (Experimental Animal Center, China Medical University) were used, half male and half female, 18-22 g, brief probability unit method was used to test the acute toxicity of the compound.
(§2) Ten Kunming mice (Experimental Animal Center, China Medical University) were used, half male and half female, 18-22 g, brief probability unit method was used to test the acute toxicity of the compound.

Kunming mice [5] = test: Experiment on acute toxicity; conditions: mouse, in vivo
Source text: as §1, §2

Kunming mice [6] = test: Marrow micronucleus test on mice; format: in vivo
Method: Ten Kunming mice (Experimental Animal Center, China Medical University), half male and half female, were used. Compound II-2 was administered via gastric gavage at 120 mg/kg/day, and II-85 was administered to 74 mg/kg/day. The drug was administered for 4 days continuously. Marrow micronucleus test was performed on day 5.
Mice in positive control group were administered cyclophosphane at 60 mg/kg/day. Mice in negative control group were administered normal saline at 0.1 ml/10 g/day. The drug was administered for 4 days continuously. Marrow micronucleus test was performed on day 5.
The mice were killed by snapping neck, and then femur and sternum were excised, with blood and muscles removed, epiphysis cut off. Then marrow from sternum was squeezed to clean glassslide with bovine serum by using a pair of hemostatic forceps, or marrow on femur was flushed directly with bovine serum onto clean glassslide. Then the substance on glassslide were mixed well and smeared. Then the prepared and dried marrow smears were put into staining tank with methanol, fixed for 15 min, picked out to dry in the open air. After marrow smears were dried, it would be stained in freshly prepared Giemsa solution (1 volume of Giemsa stock solution and 9 volumes of pH 6.8 phosphate buffer) for 10 min, staining solution was flushed away with little stream. Then the smear was dried in the open air and observed under a microscope.

SD rats = test: Effects on blood pressure of SD rats anesthetized with urethane; format: in vivo; conditions: for diastolic blood pressure (DBP) / mean artery pressure (MAP) / systolic blood pressure (SBP): 4.0 mg/kg gastric gavage, n = 4
Method: (§3) Four SD rats were anesthetized with urethane ([…]), after vital signs became stable, blood pressure was measured by common carotid intubation. After blood pressure became stable, compound II-2 was administered at 4.0 mg/kg via gastric gavage, blood pressure changes with time were observed and recorded.
as §3, with “Five” for “Four”, “rats (provided by Experimental Animal Center, China Medical University)” for “rats”, “II-85” for “II-2”, “1.5” for “4.0”

5-HT2A receptor = 5-HT2A receptor (Oryctolagus cuniculus, UniProt G1SYA7); test: Antagonism of accumulative constriction of rabbit aorta by 5-HT
Chain of 5-HT2A receptor (G1SYA7 1-469): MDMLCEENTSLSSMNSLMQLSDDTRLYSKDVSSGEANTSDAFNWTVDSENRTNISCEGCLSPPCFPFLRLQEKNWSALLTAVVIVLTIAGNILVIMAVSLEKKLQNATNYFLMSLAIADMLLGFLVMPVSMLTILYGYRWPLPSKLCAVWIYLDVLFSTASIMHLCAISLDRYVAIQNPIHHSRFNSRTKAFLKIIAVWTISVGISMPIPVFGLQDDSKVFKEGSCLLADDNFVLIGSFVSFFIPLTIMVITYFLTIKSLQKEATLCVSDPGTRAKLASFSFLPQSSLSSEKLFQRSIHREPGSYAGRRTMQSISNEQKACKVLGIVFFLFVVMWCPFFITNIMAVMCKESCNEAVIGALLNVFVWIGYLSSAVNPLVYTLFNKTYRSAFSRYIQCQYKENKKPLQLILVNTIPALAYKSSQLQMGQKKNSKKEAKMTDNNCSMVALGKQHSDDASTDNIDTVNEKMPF
Method: as §4
After sample tension became stable, a piece of waveform was recorded, 5-HT (10^−7-3×10^−4 mol/L) was added into the bath tube until maximal response, then waveform was recorded. […] 5-HT was also added by using the same method 20 min later. The maximal response was considered 100%, 5-HT constriction percentage was used as Y axis, negative logarithms of different concentrations of 5-HT were used as X axis to draw dose effective curve.
After sample tension became stable, a piece of waveform was recorded, 5-HT (10^−8-10^−3 mol/L) was added into the bath tube until maximal response, then waveform was recorded. […] 5-HT was also added by using the same method 20 min later. The maximal response was considered 100%, 5-HT constriction percentage was used as Y axis, negative logarithms of different concentrations of 5-HT were used as X axis to draw dose effective curve (data were expressed in mean±SEM ( ? ), *P<0.05, **P<0.01, n=7).
After sample tension became stable, a piece of waveform was recorded, 5-HT (10^−8-3×10^−4 mol/L) was added into the bath tube until maximal response, then waveform was recorded. […] 5-HT was also added by using the same method 20 min later. […]

α1 receptor [7] = test: Antagonism of accumulative constriction of rabbit aorta by phenylephrine (α-receptor agonist); conditions: agonist (R)-phenylephrine
Method: PE was also added by using the same method 15 min later. […] The curve was shown in FIG. 21 after positive drug doxazosine mesylate (10^−7 mol/L) was added.

## FC(F)(F)c1cccc(N2CCN(CCCCn3cnc4ccccc43)CC2)c1 [II-2, 1-(4-(4-(3-trifluoromethylphenyl)piperazine-1-yl)butyl)-1H-benzimidazole]
[1]
  EC50: 1860 nM
[2]
  EC50: 4.57 µM
α1 receptor [3]
  PA2 value to resist constriction of rabbit aorta by NA: 7.37±0.08
Calcium Channel (Ca^2+)
  PA2 value to resist constriction of rabbit aorta by CaCl2: 5.61±0.04
[4]
  LD50: 362 mg/kg
Kunming mice [5]
  therapeutic index: great therapeutic index
  toxicity: mild toxicity
Kunming mice [6]
  marrow micronucleus test result: negative
Kunming mice [6]; dosed 4 days, test on day 5, II-2 120, II-85 74, cyclophosphane 60 mg/kg/day
  micronuclei cells in 1000 polychromatic erythrocytes: 2.0±0.333%
SD rats; 0 min post dosing
  diastolic blood pressure (DBP): 75.92 mmHg
  mean artery pressure (MAP): 91.50 mmHg
  systolic blood pressure (SBP): 122.66 mmHg
SD rats; 15 min post dosing
  diastolic blood pressure (DBP): 62.21 mmHg
  mean artery pressure (MAP): 73.40 mmHg
  systolic blood pressure (SBP): 95.77 mmHg
SD rats; 30 min post dosing
  diastolic blood pressure (DBP): 61.84 mmHg
  mean artery pressure (MAP): 74.52 mmHg
  systolic blood pressure (SBP): 99.88 mmHg
SD rats; 60 min post dosing
  diastolic blood pressure (DBP): 58.04 mmHg
  mean artery pressure (MAP): 72.77 mmHg
  systolic blood pressure (SBP): 102.22 mmHg
SD rats; 90 min post dosing
  diastolic blood pressure (DBP): 53.86 mmHg
  mean artery pressure (MAP): 68.81 mmHg
  systolic blood pressure (SBP): 98.71 mmHg
SD rats; 120 min post dosing
  diastolic blood pressure (DBP): 69.10 mmHg
  mean artery pressure (MAP): 83.12 mmHg
  systolic blood pressure (SBP): 111.16 mmHg
SD rats; 150 min post dosing
  diastolic blood pressure (DBP): 70.79 mmHg
  mean artery pressure (MAP): 84.47 mmHg
  systolic blood pressure (SBP): 111.82 mmHg
SD rats; 180 min post dosing
  diastolic blood pressure (DBP): 71.08 mmHg
  mean artery pressure (MAP): 84.83 mmHg
  systolic blood pressure (SBP): 112.34 mmHg
SD rats; 210 min post dosing
  diastolic blood pressure (DBP): 75.26 mmHg
  mean artery pressure (MAP): 88.54 mmHg
  systolic blood pressure (SBP): 115.12 mmHg
SD rats; anesthetized SD rats, gastric gavage
  time until blood pressures recovered to those before drug dosing: 3.5 h
SD rats; in vivo bulk testing on rats
  oral absorption: good oral absorption
SD rats; rats, gastric gavage
  hypotensive effects: good hypotensive effects; also recorded: obvious hypotensive effects
5-HT2A receptor
  Kb: 1950 nM

## COc1cc2nc(N3CCN(C(=O)C4COc5ccccc5O4)CC3)nc(N)c2cc1OC (stereo not drawn) [doxazosin, reference compound]
α1 receptor [3]
  PA2 value to resist constriction of rabbit aorta by NA: 7.52±0.04 and 7.76±0.24
α1 receptor [7]
  PA2 value to resist constriction of rabbit aorta by PE: 7.43±0.12
